Source: patent US7285701B2, “Cyanobacterial nucleic acid fragments encoding proteins useful for controlling plant traits via nuclear or plastome transformation” (BASF Plant Science GmbH, priority 2001, dated 2007)
Like-named read-outs stand apart in the source and are kept apart here.

Tests used:
[1] = test system: 4′-fluoro-6-[(alpha,alpha,alpha,-trifluoro-m-toly)oxy]-picolinamide resistant mutants; assay: Cross-resistance test of resistant mutants against other PDS inhibitors; type: cell-based, Synechocystis
[2] = test system: wild type Synechocystis PCC6803; assay: Paper disc assay on BG-11 agar, wild type Synechocystis; type: cell-based
Description: (§1) Alternatively screens can be performed on agar plates with “lawns” of cyanobacteria and paper discs impregnated with test compounds. In this case, zones of inhibited growth around paper discs can be detected after two or three days.
(§2) To set up the assay, wild type cells of Synechocystis were mixed with equal volumes of 2× top agar and 2× BG-11 and overlaid on top of BG-11 agar plate. Cells normally appear in 3-5 days after plating. This method will yield an even and uniform lawn of cells. Upon solidifying, test compounds are then spotted on Whatman filter paper disc before being placed on agar plates. Four compounds can be tested on a single plate. Using this screening, in an example employing 160 different compounds, predominantly compounds of novel mode of action, have been tested on this microbe, and on average, 25% of the compounds show at least some activity.
Susceptibility of Synechocystis to 4′-fluoro-6-[(alpha,alpha,alpha,-trifluoro-m-toly)oxy]-picolinamide was tested using a paper disc assay in which 4′-fluoro-6-[(alpha,alpha,alpha,-trifluoro-m-toly)oxy]-picolinamide was spotted in a paper disc before being placed on a lawn of cells. In determining susceptibility, the size of the zone of inhibition is indicative of the potency of the compound.
(§3) A rapid plate based assay for screening and identifying active compounds is then performed. Wild type cells of Synechocystis are mixed with equal volumes of 2× top agar and 2× BG-11. The mixture is then overlaid on top of a BG-11 agar plate. Cells normally appear 3-5 days after plating. This method will yield an even and uniform lawn of cells.
(§4) After solidification of the agar, test compounds were spotted on Whatman filter paper disc, and then were placed on agar plates. Four different compounds were tested on a single plate. Using this screening method, 160 different compounds were tested, predominantly compounds of novel mode of action. On average, 25% of the compounds show at least some activity.
The resistant phenotype of selected mutant cell lines was further tested in solid medium as well as in suspension cultures. […]

wild type Synechocystis = assay: Dose-response in liquid/suspension culture, wild type Synechocystis; type: cell-based, Synechocystis PCC6803
Procedure: (§5) To identity a target site gene activity, two types of Bluegreen algae, Synechocystis PCC 6803 (American Type Culture Collection, Rockville, Md.) and Anabaena PCC 7120 (American Type Culture Collection, Rockville, Md.) can be used for the screen. One is grown in microtiter dishes in BG-11 medium supplemented with various concentrations of the test compounds. Inhibition of growth can be monitored by visual inspection after two to three days of culture. Quantitative growth measurements can be taken photometrically starting one day after inoculation.
(§6) These experiments also established a dose-response curve. A lethal concentration for resistant mutant selection was 1-2 μM of 4′-fluoro-6-[(alpha,alpha,alpha,-trifluoro-m-toly)oxy]-picolinamide. Dose-response studies were also performed in 96-sell microtiter plates on wild type and putative 4′-fluoro-6-[(alpha,alpha,alpha,-trifluoro-m-toly)oxy]-picolinamide resistant mutants of Synechocystis. The growth of the culture was measured daily at an optical density of 690 nm.
(§7) For wild type cells (WT), the growth was inhibited at concentrations of 4′-fluoro-6-[(alpha,alpha,alpha,-trifluoro-m-toly)oxy]-picolinamide of <0.25 μM, with an I50 in the sub μM range. By contrast, the I50 values are between 1-2 μM for 5-1/12E, and in the range of 5-10 μM for 7-3/12F and 7-4/12F, respectively.
(§8) Wild type cells were inhibited at concentrations of <0.25 uM 4′-fluoro-6-[(alpha,alpha,alpha,-trifluoro-m-toly)oxy]-picolinamide, with an I50 in the sub μM range. In contrast I50 values are between 1-2 μM for 5-1/12E and 5-1/12F, and between 5-10 μM for 7-3/12F and […]. Thus, because the cell lines with the mutant pds genes are far more resistant than wild type cell lines, there is evidence that the selected cultures contain 4′-fluoro-6-[(alpha,alpha,alpha,-trifluoro-m-toly)oxy]-picolinamide resistance.

[3] = test system: Synechocystis EMS resistant mutant cell lines; assay: Dose-response in suspension culture, resistant mutant cell lines; type: cell-based, Synechocystis PCC6803; conditions: seven days, read-out: I50
Procedure: as §6, §7, §8

Synechocystis PCC 6803 = assay: Susceptibility of Synechocystis PCC 6803 to known herbicides (Table 2); type: cell-based
Procedure: as §5, §1, §2
A rapid plate based assay for screening lead compounds was developed as follows. First, either one of two types of bluegreen algae, Synechocystis PCC6803 and Anabaen PC 7120 were grown in microtitre dishes containing BG-11 supplemented with various concentrations of 160 different test compounds. Alternatively, screens can be performed on agar plates with lawns of cyanobacteria and paper discs impregnated with test compounds.
as §3, §4
Cyanobacteria are a particularly useful source of genes for enhancing crop performance due to their similarity, and ancestral connection, to plant chloroplasts. In particular, cyanobacterial genes may be useful for transformation directly into the chloroplast genome due to similarities in genetic elements. Similarities in cyanobacterial genes and proteins to those from chloroplasts can carry over to a shared susceptibility to herbicides.

Anabaena AHAS = assay: In vitro AHAS assay; type: biochemical, Anabaena PCC7120; conditions: 100 nM
Procedure: (§9) AHAS is the target site of both PURSUIT® imazethapyr and OUST® sulfometuron methyl herbicides. To determine if resistance to the herbicides is due to a natural resistance to inhibition of the acetohydroxyacid synthase enzymes from the cyanobacteria, or if it is due to alternative mechanisms (e.g. lack of entry into the cell), the in vitro activity of the AHAS enzyme in the presence of the herbicides was tested.
(§10) AHAS assays were performed with slight modification as described by Singh et. al (Singh B K, Stidham M A, Shaner D L, 1988, Assay for acetohydroxyacid synthase from plants. Anal Biochem 171: 173-179).
(§11) Synechocystis PCC6803 and Anabaena PCC7120 were cultured in 1.5 L of BG-11 media. Cells were collected by centrifuge and stored frozen at −80° C. Frozen cells were thawed and placed in a 30 mL Bead Beater cell disruptor chamber (BioSpec Corp Bartlesville, Okla.). Seven mL of acid washed sand was added. The chamber was filled with 2× ASHA assay buffer, consisting of 100 mM HEPES pH7.0, 200 mM pyruvate, 20 mM MgCl2, 2 mM TPP (Thiamine pyrophosphate) and 100 μM FAD (flavin adenine dinucleotide).
(§12) The Bead Beater cell disruptor was packed in ice and turned on for 10 seconds, followed by cooling for 3 minutes. This cycle was repeated five times. The extract was transferred into a centrifuge tube, and spun in a Beckman SA20 (Beckman, Fullerton, Calif.) rotor for 15 minutes at 17,000 rpms. […]

[4] = test system: E. coli M1262 expressing the cyanobacterial ahas gene; assay: Growth on minimal media of E. coli M1262 expressing the cyanobacterial ahas gene; type: cell-based
Description: To confirm that these plasmids carry functional AHAS sequences, plasmid DNA from each of the ten rescued colonies was transformed into the E. coli strain M1262. (leuB6, ilv1614, ilvH612, λ^−, relA1, spoT1, ilvB619, ilvG603, ilfG605(am), thi-1) (Genetics Stock Center, Yale University). This strain of E. coli is lacking in AHAS. […] The ahas gene can therefore be used for achieving herbicide tolerance in crops by transformation into the nuclear or plastidic genome.

Synechocystis AHAS = assay: In vitro AHAS assay; type: biochemical, Synechocystis PCC6803; conditions: 100 nM
Procedure: as §9, §10, §11, §12

Anabaena PCC7120 = assay: In vivo growth in BG-11 media with commercial herbicides; type: cell-based; conditions: 100 nM, one week of culture in BG-11 media
Procedure: (§13) In vivo resistance of cyanobacteria to PURSUIT® imazethapyr and OUST® sulfometuron methyl. As a preliminary matter, Synechocystis PCC6803 and Anabaenia PCC7120 were tested for susceptibility to PURSUIT® imazethapyr and OUST® sulfometuron methyl. AHAS genes which are resistant to these herbicides are excellent candidates for transformation in plant plastomes and nuclear genomes. Such transformants can be used in a weed control strategy using a combination of transgenic herbicide resistant crops and herbicides.
(§14) In vivo testing of Synechocystis PCC6803 and Anabaena PCC7120 was done by culturing the organisms in varying concentrations of the commercial herbicides. […] For relative comparison purposes a concentration of 1 μM PURSUIT® imazethapyr in agar media is lethal to Arabidopsis plants.

Synechocystis PCC6803 = assay: as above; type: cell-based; conditions: 100 nM, one week of culture in BG-11 media
Procedure: as §13, §14

[5] = wild type cells, suspension culture, seven days

For `O=C(Nc1cccc2c1C(=O)c1cccc(NC(=O)c3cc(C(=O)Nc4cccc5c4C(=O)c4cccc(NC(=O)c6ccccc6)c4C5=O)c(C(=O)Nc4cccc5c4C(=O)c4cccc(NC(=O)c6ccccc6)c4C5=O)cc3C(=O)Nc3cccc4c3C(=O)c3cccc(NC(=O)c5ccccc5)c3C4=O)c1C2=O)c1ccccc1` [1,2,4,5-benzenetetracarboxamide,N,N′,N″,N′″-tetrakis[5-(benzoylamino)-9,10-dihydro-9,10-dioxo-1-anthracenyl]], the “cross-resistance of the resistant mutants” value (from here on “cross-resistance”) [1] was “exhibited cross-resistance”.
With `O=C(Nc1ccc(F)cc1)c1cccc(Oc2cccc(C(F)(F)F)c2)n1` [4′-fluoro-6-[(alpha,alpha,alpha,-trifluoro-m-toly)oxy]-picolinamide] the “concentrations active against Synechocystis PCC6803” value ([2]; BG-11 solid medium, paper disc assay) was 1 to 2 µM, the “lethal concentration for resistant mutant selection” value ([2]; Synechocystis) was 1 to 2 µM and the “growth of wild type Synechocystis” value ([2]; paper disc assay, 0.5 nmol) was “significantly inhibited”. For the same molecule, the “I50 of growth inhibition” value (wild type Synechocystis; liquid cultures) was “lower sub-micromolar range”, the I50 (wild type Synechocystis; [5]) was “sub μM range” and the “concentration at which growth was inhibited” value (wild type Synechocystis; [5]) was less than 0.25 µM. For the same molecule, the IC50 ([3]; mutant 5-1/12E) was 1 to 2 µM, the IC50 ([3]; mutant 5-1/12F) was 1 to 2 µM and the IC50 ([3]; mutant 5-4/12F) was 5 to 10 µM. The IC50 ([3]; mutant 7-3/12F) was 5 to 10 µM and the IC50 ([3]; mutant 7-4/12F) was 5 to 10 µM.
In the case of `CC(=O)/C(C(=O)c1ccc(Cl)cc1Cl)=C(/N)SCc1ccccc1` [(2E)-2-[amino(benzylsulfanyl)methylene]-1-(2,4-dichlorophenyl)-1,3-butanedione], the “cross-resistance” value [1] is reported as “exhibited cross-resistance”.
For `N#Cc1cc(Br)c(O)c(Br)c1` [Bromoxynil], the “Activity Rating (++ = highest)” value (Synechocystis PCC 6803) was “+”.
For `CN(C)C(=O)Nc1ccc(Cl)cc1` [CMU], the “Activity Rating (++ = highest)” value (Synechocystis PCC 6803) was “+”.
For `CCOC(=O)Nc1cccc(OC(=O)Nc2ccccc2)c1` [Desmedipham], the “Activity Rating (++ = highest)” value (Synechocystis PCC 6803) was “++”.
For `CN(C)C(=O)Nc1ccccc1` [Fenuron], the “Activity Rating (++ = highest)” value (Synechocystis PCC 6803) was “++”.
In the case of `CN(C)C(=O)Nc1ccc(Cl)cc1` [Monuron], the “Activity Rating (++ = highest)” value (Synechocystis PCC 6803) is reported as “++”.
With `COC(=O)c1ccccc1S(=O)(=O)NC(=O)Nc1nc(C)cc(C)n1` [OUST® sulfometuron methyl, sulfometuron methyl] the “inhibition of AHAS enzyme” value (Anabaena AHAS) was “No significant inhibition”, the “growth on minimal media in the presence of the herbicide” value [4] was “capable of growing” and the “inhibition of AHAS enzyme” value (Synechocystis AHAS) was “No significant inhibition”. For the same molecule, the inhibition of growth (Anabaena PCC7120) was “No inhibition of growth” and the inhibition of growth (Synechocystis PCC6803) was “No inhibition of growth”.
With `COC(=O)Nc1cccc(OC(=O)Nc2cccc(C)c2)c1` [Phenmedipham] the “Activity Rating (++ = highest)” value (Synechocystis PCC 6803) was “++”.
In the case of `CCNc1nc(Cl)nc(NCC)n1` [Simazine], the “Activity Rating (++ = highest)” value (Synechocystis PCC 6803) is reported as “++”.
In the case of `Cc1cc(OCC=C(Cl)Cl)nc(Oc2ccnc(C(F)(F)F)c2)c1` [pyridine, 2-[(3,3-dichloro-2-propenyl)oxy]-4-methyl-6-[(2-(trifluoromethyl)-4-pyrodinyl]oxy]], the “cross-resistance” value [1] is reported as “exhibited cross-resistance”.
